{"source": "patent US20210069110A1", "about": "“NON-AQUEOUS COMPOSITION HAVING DRUG CARRIED THEREIN, AND METHOD FOR PRODUCING SAME” (Techno Guard Co. Ltd., priority 2017, published 2021)", "origin": "cited, not measured here", "details": "General Notice of Japanese Pharmacopoeia", "data": [{"smiles": "CO[C@H]1C(=O)[C@]2(C)[C@@H](OC)C[C@H]3OC[C@@]3(OC(C)=O)[C@H]2[C@H](OC(=O)c2ccccc2)[C@]2(O)C[C@H](OC(=O)[C@H](O)[C@@H](NC(=O)OC(C)(C)C)c3ccccc3)C(C)=C1C2(C)C", "note": "[Cabazitaxel]", "values": [{"measurement": "Water solubility of drug (Expression in Japanese Pharmacopoeia)", "value": "Practically insoluble"}]}, {"smiles": "CCCCC[C@H](O)/C=C/[C@H]1[C@H](O)CC(=O)[C@@H]1CCCCCCC(=O)O", "note": "[Prostaglandin E1]", "values": [{"measurement": "Water solubility of drug (Expression in Japanese Pharmacopoeia)", "value": "Practically insoluble"}]}, {"smiles": "CC(=O)O[C@H]1C(=O)[C@@]2(C)[C@H]([C@H](OC(=O)c3ccccc3)[C@]3(O)C[C@H](OC(=O)[C@H](O)[C@@H](NC(=O)c4ccccc4)c4ccccc4)C(C)=C1C3(C)C)[C@]1(OC(C)=O)CO[C@@H]1C[C@@H]2O", "note": "[Paclitaxel]", "values": [{"measurement": "Water solubility of drug (Expression in Japanese Pharmacopoeia)", "value": "Practically insoluble"}]}, {"smiles": "CC(=O)O[C@@]12CO[C@@H]1C[C@H](O)[C@@]1(C)C(=O)[C@H](O)C3=C(C)[C@@H](OC(=O)[C@H](O)[C@@H](NC(=O)OC(C)(C)C)c4ccccc4)C[C@@](O)([C@@H](OC(=O)c4ccccc4)[C@H]21)C3(C)C", "note": "[Docetaxel]", "values": [{"measurement": "Water solubility of drug (Expression in Japanese Pharmacopoeia)", "value": "Practically insoluble"}]}]}
